According to the NIST ThermoML archive (doi:10.1021/je8004613):

Assay: xn = mol fraction of the nth substance listed
Details: 101 kPa, Liquid; for speed of sound: Pulse-echo method; for mass density: Vibrating tube method

COC(C)(C)C [2-methoxy-2-methylpropane] + CCCCCCCC
Details	mass density, 288.15 K [kg/m3]	mass density, 293.15 K [kg/m3]	mass density, 298.15 K [kg/m3]	mass density, 303.15 K [kg/m3]	mass density, 308.15 K [kg/m3]	speed of sound, 288.15 K [m/s]	speed of sound, 293.15 K [m/s]	speed of sound, 298.15 K [m/s]	speed of sound, 303.15 K [m/s]	speed of sound, 308.15 K [m/s]
x1 = 0.0681	708.15	704.08	700.01	695.91	691.79	1205.4	1184.6	1163.5	1142.6	1121.8
x1 = 0.1226	709.47	705.36	701.24	697.1	692.93	1198.4	1177.6	1156.3	1135.4	1114.7
x1 = 0.2056	711.65	707.48	703.29	699.07	694.83	1187.6	1166.7	1145.4	1124.3	1103.4
x1 = 0.3046	714.48	710.23	705.96	701.64	697.3	1174.2	1153.1	1131.8	1110.5	1089.4
x1 = 0.4001	717.54	713.19	708.81	704.4	699.96	1161.4	1140.2	1118.7	1097.1	1075.9
x1 = 0.4535	719.37	714.96	710.53	706.06	701.56	1154.3	1132.9	1111.2	1089.6	1068.2
x1 = 0.4947	720.85	716.4	711.92	707.4	702.84	1148.7	1127.2	1105.4	1083.8	1062.3
x1 = 0.5442	722.73	718.21	713.67	709.09	704.48	1142	1120.6	1098.7	1077	1055.3
x1 = 0.5996	724.94	720.36	715.75	711.1	706.42	1134.7	1113	1091	1069.1	1047.5
x1 = 0.6916	728.91	724.2	719.47	714.7	709.89	1122.5	1100.6	1078.4	1056.2	1034.3
x1 = 0.8001	734.16	729.3	724.41	719.47	714.49	1108.1	1085.8	1063.2	1040.8	1018.6
x1 = 0.9007	739.68	734.66	729.6	724.5	719.35	1095.1	1072.6	1049.6	1026.9	1004.2
x1 = 0.9487	742.54	737.44	–	727.1	721.86	1089	1066.2	1043.1	1020.1	997.3
